According to publication PMC5931096, “A Phase I study of the novel immunomodulatory agent PG545 (pixatimod) in subjects with advanced solid tumours” (British Journal of Cancer, 2018):

Assay: Phase I dose-escalation: safety, tolerability, DLT and MTD of weekly 1-h IV infusion
Format: in vivo
Protocol: The study was an open-label, multicentre, phase 1 dose-escalation study using a 3 + 3 design. The primary objective was to determine the MTD of weekly administered PG545 via IV infusion. Secondary objectives were to characterize safety, tolerability, clinical activity, PK and PD biomarkers.
Patients continued treatment until disease progression, unacceptable toxicity or withdrawal (either voluntarily or investigator-decision).
All patients were assessed for safety, those who received at least one dose of PG545 were evaluated for efficacy. Safety assessment included the incidence of all adverse events (AEs), irrespective of relationship to study drug, according to the National Cancer Institute Common Terminology Criteria for Adverse Events, version 4.0, and the incidence of patients experiencing dose modifications and/or premature discontinuation of study drug. Dose-limiting toxicities (DLTs) used to determine the MTD were defined as occurring during Cycle 1 of treatment only and related to PG545 according to investigator assessment. If no DLT occurred in the first three subjects, the next three-subject cohort was enrolled at the next highest available dose level. If a single DLT occurred, an additional three subjects was enrolled at the same dose level. Dose escalation continued until two subjects of the cohort experienced a DLT; this was defined as the toxic dose level. The dose-escalation phase was completed and MTD determined by reducing the dose to the next lowest dose compared to the toxic dose and expanding this cohort to at least 6 subjects.

[1] = Moderate, Unrelated, Safety Set

CC(C)CCC[C@@H](C)[C@H]1CC[C@H]2[C@@H]3CC[C@H]4C[C@@H](O[C@@H]5O[C@H](COS(=O)(=O)O)[C@@H](O[C@H]6O[C@H](COS(=O)(=O)O)[C@@H](O[C@H]7O[C@H](COS(=O)(=O)O)[C@@H](O[C@H]8O[C@H](COS(=O)(=O)O)[C@@H](OS(=O)(=O)O)[C@H](OS(=O)(=O)O)[C@H]8OS(=O)(=O)O)[C@H](OS(=O)(=O)O)[C@H]7OS(=O)(=O)O)[C@H](OS(=O)(=O)O)[C@H]6OS(=O)(=O)O)[C@H](OS(=O)(=O)O)[C@H]5OS(=O)(=O)O)CC[C@]4(C)[C@H]3CC[C@]12C [PG545]
7 (30.4%): TEAE: At least one event (Severe, Unrelated, Safety Set)
4 (17.4%): TEAE: Metabolism and nutritional disorders [1] | TEAE: Respiratory, thoracic and mediastinal disorders [1]
4 (17.5%): TEAE: General disorders and administration site conditions (Severe, Related, Safety Set)
2 (8.7 %): TEAE: Respiratory, thoracic and mediastinal disorders (Severe, Related, Safety Set) | TEAE: Gastrointestinal disorders (Severe, Unrelated, Safety Set)
one: SAEs graded mild (of the 12 SAEs)
six: Treatment-related hypertension, occurrences (all cohorts)
nine: SAEs graded severe (of the 12 SAEs)
3 (13.0%): TEAE: Investigations [1]
Five: SAEs resulting in withdrawal or discontinuation (in vivo)
5 (21.7%): TEAE: General disorders and administration site conditions [1] | TEAE: Hypertension (Severe, Related, Safety Set) | TEAE: Vascular disorders (Severe, Related, Safety Set)
2 (8.7%): TEAE: Headache [1] | TEAE: Nausea [1] | TEAE: Nervous system disorders [1] | TEAE: Psychiatric disorders [1] | TEAE: Chills (Severe, Related, Safety Set) | TEAE: Fatigue (Severe, Related, Safety Set) | TEAE: Investigations (Severe, Related, Safety Set) | TEAE: Blood ALP increased (Severe, Unrelated, Safety Set) | TEAE: Investigations (Severe, Unrelated, Safety Set) | TEAE: Metabolism and nutritional disorders (Severe, Unrelated, Safety Set)
4 (17) n (%): Diarrhoea, treatment-related AE (Overall, N = 23)
6 (26) n (%): Hypertension, treatment-related AE (Overall, N = 23)
6 (26.1%): TEAE: Musculoskeletal and connective tissue disorders [1]
Six: SAEs possibly, likely or certainly related to PG545 (investigator assessment)
5 (22) n (%): Chills, treatment-related AE (Overall, N = 23) | Decreased appetite, treatment-related AE (Overall, N = 23) | Fatigue, treatment-related AE (Overall, N = 23) | Hypertension, related severe AE (Overall, N = 23) | Infusion-related reaction, treatment-related AE (Overall, N = 23) | Nausea, treatment-related AE (Overall, N = 23) | Pyrexia, treatment-related AE (Overall, N = 23)
12: Serious adverse events (SAEs), number (all cohorts)
2 (9) n (%): Blood cholesterol increased, treatment-related AE (Overall, N = 23) | Chills, related severe AE (Overall, N = 23) | Fatigue, related severe AE (Overall, N = 23) | Headache, treatment-related AE (Overall, N = 23) | Hypercholesterolemia, treatment-related AE (Overall, N = 23) | Injection site reaction, treatment-related AE (Overall, N = 23)
11 (47.8%): TEAE: At least one event (Severe, Related, Safety Set)
1 (4.3%): TEAE: Groin pain [1] | TEAE: Hypoalbuminaemia [1] | TEAE: Infections and infestations [1] | TEAE: Insomnia [1] | TEAE: Intestinal obstruction [1] | TEAE: Malaise [1] | TEAE: Musculoskeletal pain [1] | TEAE: Neutrophil count increased [1] | TEAE: Pain in extremity [1] | TEAE: Platelet count increased [1] | TEAE: Upper respiratory tract infection [1] | TEAE: White blood cell count increased [1] | TEAE: Acute pulmonary oedema (Severe, Related, Safety Set) | TEAE: Blood cholesterol increased (Severe, Related, Safety Set) | TEAE: Blood pressure increased (Severe, Related, Safety Set) | TEAE: Epistaxis (Severe, Related, Safety Set) | TEAE: Hyperlipidaemia (Severe, Related, Safety Set) | TEAE: Infusion related reaction (Severe, Related, Safety Set) | TEAE: Injury, poisoning and procedural complications (Severe, Related, Safety Set) | TEAE: Metabolism and nutritional disorders (Severe, Related, Safety Set) | TEAE: Pyrexia (Severe, Related, Safety Set) | TEAE: AST increased (Severe, Unrelated, Safety Set) | TEAE: Anaemia (Severe, Unrelated, Safety Set) | TEAE: Blood and lymphatic system disorders (Severe, Unrelated, Safety Set) | TEAE: Chest pain (Severe, Unrelated, Safety Set) | TEAE: Constipation (Severe, Unrelated, Safety Set) | TEAE: Dehydration (Severe, Unrelated, Safety Set) | TEAE: Dysuria (Severe, Unrelated, Safety Set) | TEAE: GGT increased (Severe, Unrelated, Safety Set) | TEAE: General disorders and administration site conditions (Severe, Unrelated, Safety Set) | TEAE: Hyponatraemia (Severe, Unrelated, Safety Set) | TEAE: Infections and infestations (Severe, Unrelated, Safety Set) | TEAE: Lower respiratory tract infection (Severe, Unrelated, Safety Set) | TEAE: Renal and urinary disorders (Severe, Unrelated, Safety Set) | TEAE: Small intestinal obstruction (Severe, Unrelated, Safety Set)
150 mg: Toxic dose (weekly 1-h IV infusion)
two: SAEs graded fatal (of the 12 SAEs, death due to disease progression)
100 mg: Maximum-tolerated dose (MTD) (weekly 1-h IV infusion)
1 (4) n (%): Acute pulmonary oedema, related AE leading to discontinuation (Overall, N = 23) | Acute pulmonary oedema, related serious AE (Overall, N = 23) | Acute pulmonary oedema, related severe AE (Overall, N = 23) | Blood cholesterol increased, related severe AE (Overall, N = 23) | Blood pressure increased, related severe AE (Overall, N = 23) | Chills, related AE leading to discontinuation (Overall, N = 23) | Epistaxis, related AE leading to discontinuation (Overall, N = 23) | Epistaxis, related serious AE (Overall, N = 23) | Epistaxis, related severe AE (Overall, N = 23) | Hyperlipidaemia, related severe AE (Overall, N = 23) | Hypertension, related AE leading to discontinuation (Overall, N = 23) | Hypertension, related serious AE (Overall, N = 23) | Hypovolaemia, related serious AE (Overall, N = 23) | Infusion-related reaction, related serious AE (Overall, N = 23) | Infusion-related reaction, related severe AE (Overall, N = 23) | Pyrexia, related AE leading to discontinuation (Overall, N = 23) | Pyrexia, related serious AE (Overall, N = 23) | Pyrexia, related severe AE (Overall, N = 23)
< 24 h: Duration of hypertensive episodes (transient)
